For `Cn1c2ccccc2c2nc3cccc(CCl)c3nc21`, the melting point lay within 204 to 206 °C.
To `CCOC(=O)c1sc(-c2ccc(C#N)cc2)nc1C` belongs 144 °C; to `CCCCN1CCC2(CC1)OC(=O)c1ccccc12`, 60 to 62 °C.
Turning to `COc1cc(OC)c(-c2cc3ccccc3[nH]2)cc1C=CC(=O)c1ccc(S(=O)(=O)NCC(=O)O)cc1`, the melting point was 189 to 190 °C.
In the case of `C[C@H](CSC(=O)C(C)(C)C)C(=O)N(CC(=O)OC(C)(C)C)C1CCCC1`, the melting point came out at 58 °C.
Consider `COc1cc2c(Nc3ccc(Sc4nccn4C)c(Cl)c3)c(C#N)cnc2cc1N1CCC(N2CCCCC2)CC1`, for which the melting point was 221 to 223 °C.
For the compound `CC1=C(C(N)=O)C(c2ccccc2)(N2CCN(c3ccc(F)cc3C)CC2)NO1` (centres undefined), the melting point lay in the range of 139 to 141 °C.
On to `COC1OCOc2cc3c4c(cccc4c21)C(=O)N(O)C3=O` (centres undefined), for which the melting point was 249 to 251 °C.
`Cc1cccc(NC(=O)NCC(=O)N(CC(=O)N2CCCc3ccccc32)c2ccccc2)c1` showed a melting point of 167 °C.
In the case of `CCn1cc(C2(c3cccc(-c4cncc(F)c4)c3)N=C(N)N(C)C2=O)cn1` (centres undefined), the melting point lay in the range of 216 to 220 °C.
Compound `CCn1ncc2c1ncc1c(=O)n3nc(C)cc3n(C)c12` yielded a melting point of 306 to 307 °C.
The result for `COC(=O)c1ccc(C(=O)Nc2ccc(-n3nc(C(F)(F)F)cc3C(F)(F)F)cc2)cc1` reads 195 to 196 °C; that for `O=S(=O)(Cl)Oc1cccc2cnccc12`, 152 to 155 °C; that for `CC(=O)c1ccc2c(c1)C(=O)C1(CCOC1=O)S2` (centres undefined), 139 to 140 °C.
To `N#CC1=C(CN2C(=O)c3ccccc3C2=O)Nc2n[nH]cc2C1c1ccccc1Cl` (centres undefined) belongs over 250 °C; to `CCCC(=O)/C=C/c1cn(-c2ccccc2)nc1OCc1ccc(OCc2nc(-c3ccco3)oc2C)c(OC)c1`, 167 to 168 °C; to `C=CCn1nc(-c2ccc(S(C)(=O)=O)cc2)c(-c2ccc(F)cc2)c1C(F)(F)F`, 116 to 119 °C.
To `CC(=O)Nc1c(C(=O)c2cccc(S(N)(=O)=O)c2)[nH]c2cc(Cl)ccc12` belongs 250 to 251 °C; to `COc1ccccc1Oc1c(Cl)nc(SC)nc1Cl`, 148 to 150 °C.
For `CCOC(=N)c1sc2ccc(Cl)cc2c1O`, the melting point is 236 °C.
Take `CCOC(=O)CC(=O)c1cc(OC)c(OC)c([N+](=O)[O-])c1`: the melting point lay within 67 to 68 °C.
To `COC(=O)[C@H](CC(C)C)NC(=O)CCC(=O)Nc1ccc(Nc2ccccc2)cc1` belongs 134 to 135 °C.
With `CCOC(=O)CCCOc1ccc([N+](=O)[O-])c(C=C2NC(=O)NC2=O)c1`, the melting point was in the range of 131 to 134 °C.
Regarding `NC(=O)c1[nH]cnc1OC(=O)C=Cc1ccccc1`, the melting point lay in the range of 170 to 175 °C.
`CC(C)(C)c1ccc(Nc2cccc(Br)n2)c(N)c1` had a melting point of 125 to 128 °C.
The result for `COc1cccc(Oc2ccc([N+](=O)[O-])cc2C#N)c1` reads 102 to 104 °C.
In turn, `COC(=O)NNC(=O)Nc1ccccc1` returned a melting point of 154 to 155 °C.
In turn, `CC1COc2c(ccc(F)c2F)N1` (centres undefined) showed a melting point of 51 °C.
In the case of `CCOC(=O)C1=C(C)NC(C)=C(C(=O)OCCN2CCN(C(c3ccc(C)cc3)c3ccc(C)cc3)CC2)C1c1cccc(C(F)(F)F)c1` (centres undefined), the melting point is 74 to 77 °C.
Compound `CC(=O)NC1(c2ccccc2Cl)CCC=CC1=O` (centres undefined) showed a melting point of 144 to 145 °C.
The compound `N#Cc1cnc(N)cc1N` showed a melting point of 197 to 198 °C.
Regarding `COc1ccc(-c2cncc(OC3SCC(OC(C)=O)C(OC(C)=O)C3OC(C)=O)c2)c(C)c1` (centres undefined), the melting point is 283 °C.
`O=C1Nc2ccccc2C(=O)C1=O` showed a melting point of over 250 °C.
The result for `Nc1ccc(N2CCOC2=O)c(Cl)c1` reads 151 to 153 °C; that for `Nn1cc(F)c(=O)[nH]c1=O`, 196 to 199 °C.
`Clc1cc(N2CCNCC2)c(Cl)nn1` showed a melting point of 111 to 115 °C.
Compound `Cc1cc(-c2ccc(C(F)(F)F)c(C)c2)nc(-c2cccc(-c3ccc(S(N)(=O)=O)s3)c2)n1` returned a melting point of 242 °C.
As to `CCCCc1nc2cccc(C(=O)O)c2n1Cc1ccc(-c2ccccc2S(=O)(=O)NC(=O)NCC2CC2)cc1`, the melting point fell in the range of 234 to 236 °C.
As to `CNC(=O)c1ccc(C2=NOC(c3cc(Cl)cc(Cl)c3)(C(F)(F)F)C2)cc1C` (centres undefined), the melting point fell in the range of 184 to 185 °C.
For the compound `CCCOc1ccccc1C1N=C2N=NC=C2C(=O)N1` (centres undefined), the melting point was in the range of 182 to 184 °C.
To `Cc1nccc(OCc2ccccc2)c1OCc1ccccc1` belongs 85 to 87 °C; to `CCNC(=O)c1c(C2CC2)nc(CC)n1Cc1ccc2oc(-c3ccccc3C(=O)O)c(Br)c2c1`, 182 to 184 °C; to `Cc1nnc(Cl)c(-c2c(F)cc(OCCCN(C)C)cc2F)c1-c1ccc(Cl)cc1`, 112 to 113 °C.
On to `CC(=O)OC1(C(N)=O)CCCc2cc(C)cnc21` (centres undefined), for which the melting point stood at 205 °C.
Take `CCOC(=O)Cn1nc(-c2cc(C(C)(C)C)c(O)c(C(C)(C)C)c2)c2cccnc21`: the melting point was 117 to 120 °C.
Regarding `CCC1(NC(=O)c2cc(OC)ccn2)CCCCn2c1nc(-c1ccncn1)cc2=O` (racemic), the melting point lay within 200 to 202 °C.
To `COc1ccc2oc(Cc3cccc(Cl)c3)c(CC#N)c2c1` belongs 82 °C; to `CCCO[C@@H]1[C@@H](OC)[C@H](C)O[C@@H](OC(=O)Nc2ccc(-c3ncn(-c4ccc(OC(F)(F)C(F)(F)F)cc4)n3)cc2)[C@@H]1OC`, 158 °C; to `COc1ccc(S(=O)(=O)/C(=C/C(=O)NO)CCCCc2ccccc2)cc1OC`, 123 to 126 °C.
`Nc1nc(NC2CCCCC2)nc2c1ncn2C1CCCCC1` registered a melting point of 109 to 117 °C.
The result for `C#CCCn1nnc2cc3c(=O)n(C(C)Cn4cnnn4)nnc3cc2c1=O` (centres undefined) reads 201 to 204 °C; that for `CC(=O)Nc1cccn(CC(=O)NC(C(=O)C(F)(F)F)C(C)C)c1=O` (centres undefined), 76 to 80 °C.
On to `C=C(C)CN1CCN(CCC(=O)N2c3ccccc3C(=O)Nc3cccnc32)CC1`, for which the melting point is 210 to 211 °C.
`CCOC(=O)C1CCN(S(=O)(=O)c2ccc(Br)cc2)CC1` yielded a melting point of 132 to 133 °C.
On to `CC(C)(C)c1csc(-c2cc3cc(Cc4nc(C(=O)O)cs4)ccc3o2)n1`, for which the melting point fell in the range of 227 to 230 °C.
On to `CC(Sc1nnnn1-c1ccccc1)C(=C(C#N)C#N)c1ccccc1` (centres undefined), for which the melting point was 145 to 146 °C.
The compound `C[C@H]1C[C@@](O)(c2cccc(S(=O)(=O)c3ccc4c(c3)CCC(=O)N4)c2)CCO1` came in with a melting point of 178 to 180 °C.
As for `Cc1ccc(Cc2cnc(NCCCCNc3ncccc3Cl)[nH]c2=O)cn1`, the melting point lay in the range of 180 to 182 °C.
As to `CC1=C(C(=O)O)C(c2ccccc2[N+](=O)[O-])C(C(=O)OCCC#N)=C(C)N1` (centres undefined), the melting point lay in the range of 132 to 134 °C.
The result for `CCCCCCCCCCCCCCCCCCOc1cccc(C(=O)C(=O)O)c1` reads 77 to 79 °C.
As for `O=[N+]([O-])c1cc(F)ccc1S(=O)(=O)c1ccccc1`, the melting point lay in the range of 127 to 129 °C.
Compound `O=C(N[C@@H](CCO)C(=O)O)OCc1ccccc1` displayed a melting point of 125 to 128 °C.
As for `CC(C)(C)C1=CC(=Nc2cc(C(=O)O)ccc2O)C=C(C(C)(C)C)C1=O`, the melting point was in the range of 275 to 276 °C.
`O=S1(=O)c2cccc3cccc(c23)N1CCCN1CC=C(c2c[nH]c3ccccc23)CC1` registered a melting point of 226 °C.
`COc1cccc(-c2ccc(-c3ccccc3S(=O)(=O)Nc3onc(C)c3C)cc2)n1` displayed a melting point of 132 to 134 °C.
Consider `O=C(c1ccccc1)n1c(=O)[nH]cc(F)c1=O`, for which the melting point was 170 °C.
On to `CNc1nc(N2CCN(C)CC2)nc2ccc(Cl)cc12`, for which the melting point lay within 173 to 176 °C.
`Cc1nc2c(N)nc3ccccc3c2n1CCCCS(C)(=O)=O` yielded a melting point of 206 to 209 °C.
In turn, `COc1ccc(NC(=O)C23CC4CC(CC(C4)C2)C3)cc1` returned a melting point of 181 to 184 °C.
`Cc1nc2ccccn2c1-c1csc(Nc2cccc(C(=O)Nc3ccccc3N)c2)n1` had a melting point of 195 to 197 °C.
To `O=C(O)C1=CCc2ccccc21` belongs 157 °C; to `Cn1ncc(Cl)c(N)c1=O`, 106 to 107 °C.
In the case of `CC(C)CN1C(=O)COc2cc(F)c(N)cc21`, the melting point was 176 to 178 °C.
The result for `CCS(=O)(=O)c1ccc2cc(C(C)=O)ccc2c1` reads 133 °C.
For the compound `Cc1cc(C(O)(C(F)(F)F)C(F)(F)F)cc(C)c1NCCN`, the melting point fell in the range of 158 to 161 °C.
Compound `COCOc1ccc(CCCO)c(Oc2ncc(C(F)(F)F)cc2Cl)c1` came in with a melting point of 92.5 to 93.5 °C.
To `O=C(NN=Cc1ccncc1)OCc1ccccc1` belongs 134 °C.
The compound `COc1on(C)c(=O)c1-c1ccccc1COc1ccccc1C` gave a melting point of 90 to 92 °C.
For `CCNC(=O)c1ccc(N2CCN(Cc3cc4c(c(OC)c3)OCC(=O)N4)CC2)c(C)c1`, the melting point lay in the range of 208 to 225 °C.
The compound `NS(=O)(=O)c1ccc2c(c1)CCO2` showed a melting point of 163 to 164 °C.
With `CC(C)(C)c1cc(-c2nnc(NC(N)=S)s2)cc(C(C)(C)C)c1O`, the melting point was over 80 °C.
`CCCN(CCC)C(=O)Cc1cn(Cc2ccccc2Br)c2ccccc12` showed a melting point of 118 to 119 °C.
For the compound `C[C@@H](NC(=O)c1cccc(-c2ccc(Cl)cc2)c1)[C@](O)(Cn1cncn1)c1ccc(F)cc1F`, the melting point lay within 90 to 91 °C.
Take `CC(C)[C@H]1C(=O)OCN1C(=O)OC(C)(C)C`: the melting point is 43 to 45 °C.
As for `COC(=O)C1COc2ccc(S)cc2C1` (centres undefined), the melting point fell in the range of 83 to 84 °C.
With `N#Cc1ccc(Nn2cnnc2)cc1-c1ccc(F)cc1`, the melting point was in the range of 231 to 234 °C.
`CCc1cc2c(=O)[nH]c(CO)nc2s1`: the melting point was 202 °C.
To `CCOC(=O)C(OCOc1ccc(-c2ccc(Cl)cc2)cc1)(C(F)(F)F)C(F)(F)F` belongs 42 to 43 °C; to `CCOC(=O)C(=O)Nc1ccc2c(=O)n3c(nc2c1)C(=Cc1cccc(OC)c1OCC)CC3`, 174 to 177 °C.
